From ChEMBL document CHEMBL1142635, “Lupene-type triterpenes from Periploca aphylla” (J Nat Prod, 2000) come the findings set out here.

pIC50: −log10 of the molar value. Active and inactive are the calls of the source. No cut-off for these calls is given here.

Assay [1] can be described thus: Inhibition of alpha-glucosidase 4.
Assay [2] deals with Bacillus cereus. The experiment in a line: Antibacterial activity against Bacillus cereus at 100 ug after 24 hrs by agar well diffusion method. In kind it is functional, organism-based.
Assay [3] has as its system Streptococcus pyogenes. Description: Antibacterial activity against Streptococcus pyogenes at 100 ug after 24 hrs by agar well diffusion method. In kind it is functional, organism-based. (In general: In agar diffusion tests the substance spreads into inoculated agar from a disc or well.)
The test system of assay [4] is Staphylococcus aureus. The experiment in a line: Antibacterial activity against […] at 100 ug after 24 hrs by agar well diffusion method. In kind it is functional, organism-based.
Assay [5] relates to Escherichia coli. The experiment in a line: Antibacterial activity against Escherichia coli at 100 ug after 24 hrs by agar well diffusion method. In kind it is functional, organism-based.
The test system of assay [6] is Proteus mirabilis. Description: Antibacterial activity against Proteus mirabilis at 100 ug after 24 hrs by agar well diffusion method. In kind it is functional, organism-based.
Assay [7] has as its system Salmonella typhi. The experiment in a line: Antibacterial activity against Salmonella typhi at 100 ug after 24 hrs by agar well diffusion method. It is filed as functional, organism-based. The note with it: Salmonella enterica subsp. enterica serovar Typhi.

Broadly, the pIC50 is the negative decadic logarithm of the IC50, by convention in mol/L. A lower pIC50 goes with a high IC50. In turn, `C=C(C)[C@@H]1CC[C@]2(C)CC[C@]3(C)[C@H](CC[C@@H]4[C@@]5(C)CC[C@H](O)C(C)(C)[C@@H]5[C@@H](O)C[C@]43C)[C@@H]12` had a pIC50 in assay [1] of 4.37.

For `C=C(C)[C@@H]1CC[C@]2(C)CC[C@]3(C)[C@H](CC[C@@H]4[C@@]5(C)CC[C@H](OC(=O)CCCCCCCCCCCCCCCCC)C(C)(C)[C@@H]5[C@@H](O)C[C@]43C)[C@@H]12`, the outcome in assay [2], in assay [3], in assay [4], in assay [5], in assay [6] and in assay [7] was inactive.
